One test has as its target Cholinesterase (Equus caballus, UniProt P81908). The experiment in a line: Inhibition of equine serum BChE using butyrylthiocholine iodide as substrate preincubated for 15 mins followed by substrate addition measured for 30 mins by Ellman's method. Background: In Ellman's method for cholinesterases, released thiocholine reacts with DTNB.
The next test has as its target Acetylcholinesterase (Electrophorus electricus, UniProt O42275). The experiment in a line: Inhibition of electric eel AChE using acetylthiocholine iodide as substrate preincubated for 15 mins followed by substrate addition measured for 30 mins by Ellman's method.
The target of test [1] is Acetylcholinesterase (Electrophorus electricus) (UniProt O42275). The experiment in a line: Reversible inhibition of electric eel AChE at 6 to 16 uM using acetylthiocholine iodide as substrate preincubated for 15 mins followed by substrate addition measured for 30 mins by Ellman's method.
Test [2] is described as follows: Selectivity index, ratio of IC50 for equine serum BChE to IC50 for electric eel AChE.
Test [3] deals with Acetylcholinesterase (Electrophorus electricus) (UniProt O42275). Put plainly: Mixed-type inhibition of electric eel AChE at 6 to 24 uM using acetylthiocholine iodide as substrate preincubated for 15 mins followed by substrate addition measured for 30 mins by Lineweaver-Burk plot method.
For test [4] the target is unchanged. Put plainly: Mixed-type inhibition of electric eel AChE at 7 to 28 uM using acetylthiocholine iodide as substrate preincubated for 15 mins followed by substrate addition measured for 30 mins by Lineweaver-Burk plot method.
For test [5] the target is unchanged. The experiment in a line: Mixed-type inhibition of electric eel AChE at 2 to 10 uM using acetylthiocholine iodide as substrate preincubated for 15 mins followed by substrate addition measured for 30 mins by Lineweaver-Burk plot method.
The target is the same in test [6]. Put plainly: Reversible inhibition of electric eel AChE at 2 to 10 uM using acetylthiocholine iodide as substrate preincubated for 15 mins followed by substrate addition measured for 30 mins by Ellman's method.
The target is the same in test [7]. The experiment in a line: Mixed-type inhibition of electric eel AChE at 4 to 16 uM using acetylthiocholine iodide as substrate preincubated for 15 mins followed by substrate addition measured for 30 mins by Lineweaver-Burk plot method.
Test [8] shares this target. The experiment in a line: Mixed-type inhibition of electric eel AChE at 8 to 32 uM using acetylthiocholine iodide as substrate preincubated for 15 mins followed by substrate addition measured for 30 mins by Lineweaver-Burk plot method.
Test [9] has the same target. Put plainly: Reversible inhibition of electric eel AChE at 4 to 12 uM using acetylthiocholine iodide as substrate preincubated for 15 mins followed by substrate addition measured for 30 mins by Ellman's method.
The target is the same in test [10]. The experiment in a line: Mixed-type inhibition of electric eel AChE at 4 to 20 uM using acetylthiocholine iodide as substrate preincubated for 15 mins followed by substrate addition measured for 30 mins by Lineweaver-Burk plot method.

In ChEMBL document CHEMBL4118067, “Isosteroidal alkaloids as potent dual-binding site inhibitors of both acetylcholinesterase and butyrylcholinesterase from the bulbs of Fritillaria walujewii” (Eur J Med Chem, 2017) one finds IC50, inhibition and Ratio IC50 data, which are given here for twelve compounds.

Each structure is given as a SMILES string. Active and inactive are the calls of the source. No cut-off for these calls is given here.

Chain of Acetylcholinesterase (O42275 whole entry): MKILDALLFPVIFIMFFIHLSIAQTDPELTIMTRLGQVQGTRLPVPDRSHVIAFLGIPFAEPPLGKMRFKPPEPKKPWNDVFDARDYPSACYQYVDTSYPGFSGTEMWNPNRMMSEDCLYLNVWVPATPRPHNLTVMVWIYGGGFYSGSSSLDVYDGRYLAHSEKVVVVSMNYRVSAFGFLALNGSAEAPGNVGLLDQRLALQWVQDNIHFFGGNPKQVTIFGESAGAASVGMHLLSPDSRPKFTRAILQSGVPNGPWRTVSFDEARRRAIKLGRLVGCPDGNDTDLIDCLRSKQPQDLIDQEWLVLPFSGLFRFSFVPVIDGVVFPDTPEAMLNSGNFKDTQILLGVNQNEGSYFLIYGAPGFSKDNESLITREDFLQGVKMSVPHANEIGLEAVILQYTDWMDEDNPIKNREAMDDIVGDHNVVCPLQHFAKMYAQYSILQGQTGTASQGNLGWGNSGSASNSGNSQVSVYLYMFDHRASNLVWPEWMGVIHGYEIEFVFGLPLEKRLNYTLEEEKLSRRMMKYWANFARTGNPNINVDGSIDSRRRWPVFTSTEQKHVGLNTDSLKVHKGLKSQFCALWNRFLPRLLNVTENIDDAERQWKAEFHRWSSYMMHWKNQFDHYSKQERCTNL
Chain of Cholinesterase (P81908 whole entry): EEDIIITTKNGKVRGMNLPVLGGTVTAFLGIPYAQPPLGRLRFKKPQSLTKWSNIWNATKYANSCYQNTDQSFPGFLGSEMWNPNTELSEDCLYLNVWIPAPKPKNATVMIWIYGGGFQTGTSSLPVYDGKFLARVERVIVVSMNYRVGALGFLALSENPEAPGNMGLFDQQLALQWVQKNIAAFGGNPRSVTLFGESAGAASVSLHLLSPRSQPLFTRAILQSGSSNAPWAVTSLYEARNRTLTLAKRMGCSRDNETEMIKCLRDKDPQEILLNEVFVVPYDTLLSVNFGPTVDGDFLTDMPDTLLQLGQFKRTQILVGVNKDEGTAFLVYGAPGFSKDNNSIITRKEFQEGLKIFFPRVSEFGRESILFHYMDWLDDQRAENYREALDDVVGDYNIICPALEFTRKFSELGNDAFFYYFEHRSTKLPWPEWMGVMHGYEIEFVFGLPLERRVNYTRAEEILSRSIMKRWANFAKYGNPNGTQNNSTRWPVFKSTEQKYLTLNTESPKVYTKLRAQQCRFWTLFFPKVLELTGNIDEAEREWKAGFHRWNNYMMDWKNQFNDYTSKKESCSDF
Chain of Acetylcholinesterase (Electrophorus electricus) (O42275 24-633 limits assumed): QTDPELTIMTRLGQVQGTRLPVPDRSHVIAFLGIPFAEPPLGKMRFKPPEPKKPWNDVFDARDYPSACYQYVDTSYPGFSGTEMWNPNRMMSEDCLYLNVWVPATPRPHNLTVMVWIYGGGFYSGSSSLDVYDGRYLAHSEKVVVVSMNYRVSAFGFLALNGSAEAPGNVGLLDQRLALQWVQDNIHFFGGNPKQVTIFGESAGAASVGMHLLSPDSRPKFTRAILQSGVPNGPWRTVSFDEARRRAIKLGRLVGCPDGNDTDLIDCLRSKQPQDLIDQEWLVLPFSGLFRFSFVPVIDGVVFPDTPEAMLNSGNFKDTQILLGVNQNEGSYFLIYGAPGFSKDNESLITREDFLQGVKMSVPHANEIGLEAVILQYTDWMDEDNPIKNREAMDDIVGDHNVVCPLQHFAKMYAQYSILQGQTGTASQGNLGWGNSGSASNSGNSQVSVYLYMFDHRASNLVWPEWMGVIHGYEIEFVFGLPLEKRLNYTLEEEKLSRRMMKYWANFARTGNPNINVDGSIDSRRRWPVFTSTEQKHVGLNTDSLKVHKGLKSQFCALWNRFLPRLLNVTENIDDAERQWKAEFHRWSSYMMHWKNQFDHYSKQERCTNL

By IC50 is commonly meant the concentration that inhibits the measured activity by half. A lower IC50 goes with greater potency in that assay. Turning to `C[C@H]1CC[C@@H]2N(C1)C[C@H]1[C@@H]3C[C@H]4[C@@H](CC(=O)[C@H]5C[C@@H](O)CC[C@@]54C)[C@@H]3CC[C@H]1[C@]2(C)O` [IMPERIALINE], the IC50 on Cholinesterase and against Acetylcholinesterase was more than 100 µM throughout.

In the case of `C[C@H]1CC[C@@H]2N(C1)C[C@H]1[C@@H]3C[C@H]4[C@@H](CC(=O)[C@H]5C[C@@H](O[C@@H]6O[C@H](CO)[C@@H](O)[C@H](O)[C@H]6O)CC[C@@]54C)[C@@H]3CC[C@H]1[C@]2(C)O`, the IC50 on Cholinesterase and on Acetylcholinesterase was more than 100 µM throughout.

In the case of `C[C@H]1CC[C@H]2[C@H](C)[C@@H]3CC[C@@H]4[C@@H](C[C@H]5[C@H]4CC(=O)[C@H]4C[C@@H](O[C@@H]6O[C@H](CO)[C@@H](O[C@@H]7O[C@H](CO)[C@@H](O)[C@H](O)[C@H]7O)[C@H](O)[C@H]6O)CC[C@@]45C)[C@@H]3CN2C1`, the values for the IC50 on Cholinesterase and on Acetylcholinesterase were 5.71 µM and 9.88 µM, respectively. Moreover, the inhibition entry in test [1] and in test [3] was “Active” each time. Moreover, the Ratio IC50 in test [2] is 0.58.

Turning to `C[C@H]1CC[C@@H]2[C@@H](C)[C@@H]3CC[C@@H]4[C@@H](C[C@H]5[C@H]4C[C@H](O)[C@H]4C[C@@H](O[C@@H]6O[C@H](CO)[C@@H](O)[C@H](O)[C@H]6O)CC[C@@]45C)[C@@H]3CN2C1`, the figures for the IC50 against Cholinesterase and at Acetylcholinesterase were 13.5 µM and 51.5 µM, respectively. In addition, the Ratio IC50 in test [2] was 0.26.

On to `C[C@H]1CC[C@H]2[C@H](C)[C@@H]3CC[C@@H]4[C@@H](C[C@H]5[C@H]4CC(=O)[C@H]4C[C@@H](O[C@@H]6O[C@H](CO)[C@@H](O)[C@H](O)[C@H]6O)CC[C@@]45C)[C@@H]3CN2C1`, for which the half-inhibitory concentration (IC50) on Cholinesterase stood at 6.8 µM; on Acetylcholinesterase, 11.5 µM. In addition, the inhibition result in test [1] and in test [4] was “Active” each time. Besides, the Ratio IC50 in [2] was found to be 0.59.

For the compound `CC1=C2C[C@H]3[C@@H](CC(=O)[C@H]4C[C@@H](O)CC[C@@]43C)[C@@H]2CCC12O[C@@H]1C[C@H](C)CN[C@H]1[C@H]2C` (stereo partly drawn), the concentration for half-maximal inhibition (IC50) at Cholinesterase is 153 µM; against Acetylcholinesterase, 94 µM. Further, the Ratio IC50 in [2] came to 1.63.

`C[C@H]1CC[C@@H]2[C@@H](C)[C@@H]3CC[C@@H]4[C@@H](C[C@H]5[C@H]4C[C@@H](O)[C@H]4C[C@@H](O)CC[C@@]45C)[C@@H]3CN2C1`: the inhibition entry in test [5] and in test [6] was “Active” in each case. The concentration for half-maximal inhibition (IC50) against Cholinesterase is 2.08 µM; on Acetylcholinesterase it was 5.85 µM. Also, in test [2], the Ratio IC50 was 0.36.

For the compound `C[C@H]1CC[C@@H]2[C@@H](C)[C@@H]3CC[C@@H]4[C@@H](C[C@H]5[C@H]4C[C@H](O)[C@H]4C[C@@H](O)CC[C@@]45C)[C@@H]3CN2C1`, the inhibition result in test [7] and in test [6] was “Active” in each case. For the same compound, the figures for the IC50 on Cholinesterase and against Acetylcholinesterase were 2.58 µM and 7.19 µM, respectively. Also, in test [2], the Ratio IC50 came to 0.36.

As for `C[C@H]1CC[C@H]2[C@H](C)[C@H]3CC[C@@H]4[C@@H](C[C@H]5[C@H]4C[C@@H](O)[C@H]4C[C@@H](O)CC[C@@]45C)[C@@H]3CN2C1`, the IC50 is 18.6 µM against Cholinesterase and 45.8 µM against Acetylcholinesterase. In test [2], the Ratio IC50 came out at 0.41.

On to `C=C1C2(CC[C@H]3[C@@H]4CC(=O)[C@H]5C[C@@H](O)CC[C@]5(C)[C@H]4C[C@@]13O)O[C@@H]1C[C@H](C)CN[C@H]1[C@H]2C` (stereo partly drawn), for which the inhibition result in [8] and in [6] was “Active” each time. For the same compound, the IC50 at Cholinesterase was found to be 958 µM; at Acetylcholinesterase, 7.6 µM. In addition, in test [2], the Ratio IC50 was 126.

Regarding `C[C@H]1CC[C@@H]2[C@@H](C)[C@@H]3CC[C@@H]4[C@@H](C[C@H]5[C@H]4C[C@@H](O)[C@H]4C[C@@H](O[C@@H]6O[C@H](CO)[C@@H](O)[C@H](O)[C@H]6O)CC[C@@]45C)[C@@H]3CN2C1`, the concentration for half-maximal inhibition (IC50) at Cholinesterase was 3.89 µM; against Acetylcholinesterase, 10.8 µM. Besides, the inhibition entry in test [1] and in [3] was “Active” in each case. The Ratio IC50 in test [2] stood at 0.36.

In the case of `C[C@H]1CC[C@H]2[C@H](C)[C@@H]3CC[C@@H]4[C@@H](C[C@H]5[C@H]4CC(=O)[C@H]4C[C@@H](O)CC[C@@]45C)[C@@H]3CN2C1`, the half-inhibitory concentration (IC50) came to 3.05 µM on Cholinesterase and 8.37 µM against Acetylcholinesterase. The Ratio IC50 in test [2] came to 0.36. Besides, the inhibition result in [9] and in test [10] was “Active” each time.
